Where a SMILES comes first, the peptide text is derived from it. Bridges are numbered along the chain shown (N, C = ends). [ ]: non-standard residue; d: D form. The star is where a group is joined. Threoninol(2S,3R) = C[C@@H](O)[C@H](CO)N*
How the values were obtained:
[1] = molecular target: cGMP-specific 3',5'-cyclic phosphodiesterase (Homo sapiens, UniProt O76074); experiment: DRUGMATRIX: Phosphodiesterase PDE5 enzyme inhibition (substrate: [3H]cGMP + cGMP); assay type: tissue-based; conditions: platelet; Not Active = under 50% inhibition at 10 µM
[2] = DRUGMATRIX: GABAA, Chloride Channel, TBOB radioligand binding (ligand: [3H] TBOB); assay type: cell membranes, Rattus norvegicus, Wistar, Cerebral cortex, Membrane; conditions: Not Active = under 50% inhibition at 10 µM
[3] = DRUGMATRIX: Atrial Natriuretic Factor (ANF) radioligand binding (ligand: [125I] ANF (rat)); assay type: cell membranes, Cavia porcellus, Dunkin-Hartley, Adrenal gland, Membrane; conditions: Not Active = under 50% inhibition at 10 µM
[4] = molecular target: T1, Progesterone receptor (Bos taurus, UniProt Q690N0); experiment: DRUGMATRIX: Progesterone radioligand binding (ligand: [3H] R-5020); assay type: tissue-based, Uterus; conditions: Not Active = under 50% inhibition at 10 µM
T1 sequence (Q690N0 whole entry): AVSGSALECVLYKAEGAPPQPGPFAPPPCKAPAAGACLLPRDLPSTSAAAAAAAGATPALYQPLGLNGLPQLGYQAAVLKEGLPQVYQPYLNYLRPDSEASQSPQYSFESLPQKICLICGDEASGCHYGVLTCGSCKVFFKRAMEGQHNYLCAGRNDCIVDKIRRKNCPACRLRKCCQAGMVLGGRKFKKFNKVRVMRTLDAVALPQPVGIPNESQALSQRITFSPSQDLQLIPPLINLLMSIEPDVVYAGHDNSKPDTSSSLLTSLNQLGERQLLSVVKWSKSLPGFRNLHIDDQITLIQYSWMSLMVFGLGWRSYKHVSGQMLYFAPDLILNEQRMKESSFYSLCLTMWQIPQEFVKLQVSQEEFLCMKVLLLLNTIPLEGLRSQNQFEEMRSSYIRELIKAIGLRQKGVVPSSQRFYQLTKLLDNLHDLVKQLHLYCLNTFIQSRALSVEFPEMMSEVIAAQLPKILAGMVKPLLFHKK

[5] = DRUGMATRIX: Serotonin (5-Hydroxytryptamine) 5-HT3 radioligand binding (ligand: [3H] GR-65630); assay type: cell membranes, Membrane; conditions: hek293; Not Active = under 50% inhibition at 10 µM
[6] = molecular target: Delta-type opioid receptor (Homo sapiens, UniProt P41143); assay type: cell membranes, HEK293, Membrane; conditions: hek293; also: in other assays of this panel Not Active means under 50% inhibition at 10 µM
[7] = molecular target: Melanocortin receptor 3 (Homo sapiens, UniProt P41968); assay type: cell membranes, Membrane; conditions: hek293; also: in other assays of this panel Not Active means under 50% inhibition at 10 µM
[8] = molecular target: T2, C-X-C chemokine receptor type 2 (Homo sapiens, UniProt P25025); assay type: cell membranes, Membrane; conditions: cho-k1; also: in other assays of this panel Not Active means under 50% inhibition at 10 µM
T2 sequence (P25025 whole entry): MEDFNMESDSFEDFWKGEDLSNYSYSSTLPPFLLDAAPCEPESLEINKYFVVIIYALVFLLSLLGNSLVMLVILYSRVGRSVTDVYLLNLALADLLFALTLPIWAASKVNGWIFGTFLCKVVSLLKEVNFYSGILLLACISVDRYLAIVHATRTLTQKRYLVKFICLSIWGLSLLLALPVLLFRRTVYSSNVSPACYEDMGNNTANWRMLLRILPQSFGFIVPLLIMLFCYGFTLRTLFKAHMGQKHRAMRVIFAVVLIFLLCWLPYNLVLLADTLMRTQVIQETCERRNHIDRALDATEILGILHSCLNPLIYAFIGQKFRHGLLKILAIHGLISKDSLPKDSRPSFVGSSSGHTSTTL

Sequence of Delta-type opioid receptor (P41143 whole entry): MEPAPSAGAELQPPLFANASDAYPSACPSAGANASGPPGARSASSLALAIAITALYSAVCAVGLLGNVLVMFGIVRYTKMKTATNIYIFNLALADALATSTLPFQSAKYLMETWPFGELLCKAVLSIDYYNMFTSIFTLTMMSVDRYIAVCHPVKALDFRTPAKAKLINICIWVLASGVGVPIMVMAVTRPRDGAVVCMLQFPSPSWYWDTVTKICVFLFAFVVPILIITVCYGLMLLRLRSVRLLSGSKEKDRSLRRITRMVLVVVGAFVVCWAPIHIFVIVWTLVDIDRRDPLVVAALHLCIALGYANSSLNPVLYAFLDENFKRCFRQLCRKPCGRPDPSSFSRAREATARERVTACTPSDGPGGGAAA
Sequence of Melanocortin receptor 3 (P41968 whole entry): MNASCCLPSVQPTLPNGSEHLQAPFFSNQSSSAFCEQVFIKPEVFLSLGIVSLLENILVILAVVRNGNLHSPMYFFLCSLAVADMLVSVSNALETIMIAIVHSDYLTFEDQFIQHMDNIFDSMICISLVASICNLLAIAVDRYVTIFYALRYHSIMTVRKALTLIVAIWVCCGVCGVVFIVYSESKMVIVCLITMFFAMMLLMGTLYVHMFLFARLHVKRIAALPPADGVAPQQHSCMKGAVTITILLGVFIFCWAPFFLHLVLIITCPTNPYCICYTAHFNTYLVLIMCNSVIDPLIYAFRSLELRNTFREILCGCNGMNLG

COc1ccccc1C(=O)N1CCC(Cc2ccccc2)CC1
Not Active: IC50 [1] | IC50 [2] | Ki [2] | IC50 [3] | Ki [3] | IC50 [4] | IC50 [5] | Ki [5] | IC50 [6] | IC50 [7] | IC50 [8]

COc1cc2c(c3oc(=O)c4c(c13)CCC4=O)[C@@H]1C=CO[C@@H]1O2 [AFLATOXIN]
Not Active: IC50 [1] | Ki [1] | IC50 [2] | Ki [2] | IC50 [3] | Ki [3] | IC50 [4] | Ki [4] | IC50 [5] | Ki [5] | IC50 [6] | Ki [6] | IC50 [7] | Ki [7] | IC50 [8] | Ki [8]

CC(C)Cc1ccc(C(C)C(=O)O)cc1 (configuration not stated) [IBUPROFEN]
Not Active: IC50 [1] | IC50 [2] | Ki [2] | IC50 [3] | Ki [3] | IC50 [4] | IC50 [5] | Ki [5] | IC50 [6] | IC50 [7] | IC50 [8]

CC(C)(C(=O)c1cccnc1)c1cccnc1 [METYRAPONE]
Not Active: IC50 [1] | IC50 [2] | Ki [2] | IC50 [3] | Ki [3] | IC50 [4] | IC50 [5] | Ki [5] | IC50 [6] | IC50 [7] | IC50 [8]

Cc1ncc([N+](=O)[O-])n1CCO [METRONIDAZOLE]
Not Active: IC50 [1] | IC50 [2] | Ki [2] | IC50 [3] | Ki [3] | IC50 [4] | IC50 [5] | Ki [5] | IC50 [6] | IC50 [7] | IC50 [8]

C[C@@H](O)[C@H](CO)NC(=O)[C@@H]1CSSC[C@H](NC(=O)[C@H](N)Cc2ccccc2)C(=O)N[C@@H](Cc2ccccc2)C(=O)N[C@H](Cc2c[nH]c3ccccc23)C(=O)N[C@@H](CCCCN)C(=O)N[C@@H]([C@@H](C)O)C(=O)N1 (H-[dF]CF[dW]KTC-{Threoninol(2S,3R)}; disulfide 2-7)
Not Active: IC50 [1] | IC50 [2] | Ki [2] | IC50 [3] | Ki [3] | IC50 [4] | IC50 [5] | Ki [5] | IC50 [6] | IC50 [7] | IC50 [8]

COc1ccc2[nH]c([S+]([O-])Cc3ncc(C)c(OC)c3C)nc2c1 (configuration not stated) [OMEPRAZOLE]
Not Active: IC50 [1] | IC50 [2] | Ki [2] | IC50 [3] | Ki [3] | IC50 [4] | IC50 [5] | Ki [5] | IC50 [6] | IC50 [7] | IC50 [8]

Source: ChEMBL document CHEMBL1909046, “DrugMatrix in vitro pharmacology data”
